Source: ChEMBL document CHEMBL1135146, “8-Methoxyquinoline-5-carboxamides as PDE4 inhibitors: a potential treatment for asthma” (Bioorg Med Chem Lett, 2002)

Legend:
Phosphodiesterase 4 = Phosphodiesterase 4 (Homo sapiens, UniProt P27815+Q08499+Q07343+Q08493); assay: Inhibition of Phosphodiesterase 4 (PDE-4) from human U937 cells; type: cell-based; settings: u-937
[1] = biological target: Phosphodiesterase 3 (Homo sapiens) (UniProt Q14432+Q13370); assay: Inhibition of Phosphodiesterase 3 (PDE3) from human platelet at 20 uM
[2] = Tested for the half life period of the compound, intravenously; type: ADME, organism-based, Cavia porcellus; settings: guinea pig, in vivo, iv
[3] = Tested for the oral bioavailability of the compound; type: ADME, organism-based, Cavia porcellus; settings: guinea pig, in vivo, read-out: Bioavailabiility
[4] = Compound at a dose 5 mg/kg was administered orally to guinea pig and the pharmacokinetic parameter (Cmax) was reported; type: ADME, organism-based, Cavia porcellus; parameters: dose 5 mg/kg, route oral; settings: in vivo, po
[5] = Tested for the pharmacokinetic parameter in guinea pig, administered orally at 5 mg/kg; type: ADME, organism-based, Cavia porcellus; parameters: dose 5 mg/kg, route oral; settings: in vivo, po

Structure (SMILES)	IC50 (Phosphodiesterase 4) [nM]	further results
COc1ccc(C(=O)Nc2c(Cl)cncc2Cl)c2cc(C(C)=O)oc12	1	–
COc1ccc(C(=O)Nc2ccncc2)c2cccnc12	1900	–
COc1ccc(C(=O)Nc2ccncc2Cl)c2cccnc12	110	–

The next lines start with results.

IC50 (Phosphodiesterase 4) [nM]	Structure (SMILES)	further results
290	COc1ccc(C(=O)Nc2c(Cl)cncc2Cl)c2c1nc(C(F)(F)F)n2C	inhibition [1]: 11%
170	COc1ccc(C(=O)Nc2c(Cl)cncc2Cl)c2cccnc12	half-life [2]: 36 min; bioavailability [3]: 62%; Cmax [4]: 473 ng/mL; AUC [5]: 925 ng·h/mL
480	COc1ccc(C(=O)Nc2c(Cl)cncc2Cl)c2c1nc(C(C)=O)n2C	–
120	COc1ccc(C(=O)Nc2c(Cl)cncc2Cl)c2[nH]c(C(F)(F)F)nc12	inhibition [1]: 43%
